Test results reported in EP0049683A2, “Imidazo-rifamycines, process for their preparation, pharmaceutical preparations containing them and their use” (CIBA-GEIGY AG, priority 1980, dated 1982).
Converted amounts (≈) assume the structure as drawn.

Experiments:
Assay in all cases: Agar dilution MIC in DST agar (Ericsson and Sherris)
Type in all cases: cell-based
[1] = system: Staphylococcus aureus 10B; details: in vitro; for MIC: Staphylococcus aureus, 10B, read-out: MIC Staph. 10B
Description: (§1) Die antibiotische Aktivität der Testverbindungen in vitro wurde durch die Agarverdünnungsmethode nach Ericsson, H.M., und Sherris, S.C., 1971, Acta Path. Microb. Scand. Section B, Suppl. No. 217, Bd. 1-90, in DST Agara ermittelt. Die gefundenen, das Wachstum der Testorganismen noch hemmenden Minimalkonzentrationen (MIC = minimum inhibiting concentrations) werden in Mikrogramm pro Milliliter (µg/ml) für die geprüften Verbindungen in der Tabelle 1 angegeben.

Escherichia coli 205 = details: for MIC: Escherichia coli, 205, in vitro, read-out: MIC Esch. 205; for MIC Esch. 205: in vitro
Description: as §1

[2] = system: Salmonella Typhimurium 277; details: in vitro; for MIC: Salmonella enterica, TYPHIMURIUM, read-out: MIC Salm. 277
Description: as §1

Proteus morganii 2359 = details: for MIC: Morganella morganii, 2359, in vitro, read-out: MIC Prot. 2359; for MIC Prot. 2359: in vitro
Description: as §1

Escherichia coli 2018 = details: for MIC: Escherichia coli, 2018, in vitro, read-out: MIC Esch. 2018; for MIC Esch. 2018: in vitro
Description: as §1

[3] = system: Pseudomonas aeruginosa K 799/61; details: for MIC: Pseudomonas aeruginosa, K799/61, read-out: MIC Pseu. 799; for MIC Pseu. 799: in vitro, agar dilution, DST agar
Description: as §1

Proteus morganii 1518 = details: for MIC: Morganella morganii, 1518, in vitro, read-out: MIC Prot. 1518; for MIC Prot. 1518: in vitro
Description: as §1

[4] = system: Staphylococcus aureus 2999; details: for MIC: Staphylococcus aureus, 2999, in vitro, read-out: MIC Staph. 2999; for MIC Staph. 2999: in vitro
Description: as §1

SMILES: CO[C@H]1/C=C/O[C@@]2(C)Oc3c(C)c(O)c4c(O)c(c5[nH]c(N6CCC(N7CCCCC7)CC6)nc5c4c3C2=O)NC(=O)/C(C)=C\C=C\[C@H](C)[C@H](O)[C@@H](C)[C@@H](O)[C@@H](C)[C@H](OC(C)=O)[C@@H]1C [Verbindung 24, 4-(4-Piperidino-1-piperidyl-)-imidazolo[4,5-c]rifamycin SV]
- MIC [1]: 0.05 µg/mL (≈ 0.0563 µM)
- MIC (Escherichia coli 205): 8 µg/mL (≈ 9.01 µM)
- MIC [2]: 16 µg/mL (≈ 18 µM)
- MIC (Proteus morganii 2359): 4 µg/mL (≈ 4.5 µM)
- MIC (Escherichia coli 2018): 4 µg/mL (≈ 4.5 µM)
- MIC [3]: 16 µg/mL (≈ 18 µM)
- MIC (Proteus morganii 1518): 8 µg/mL (≈ 9.01 µM)
- MIC [4]: 0.01 µg/mL (≈ 0.0113 µM)

SMILES: CO[C@H]1/C=C/O[C@@]2(C)Oc3c(C)c(O)c4c(O)c(c5nc(N6CCCCCC6)[nH]c5c4c3C2=O)NC(=O)/C(C)=C\C=C\[C@H](C)[C@H](O)[C@@H](C)[C@@H](O)[C@@H](C)[C@H](OC(C)=O)[C@@H]1C [Verbindung 27, 4-(1-Perhydroazepinyl)-imidazolo[4,5-c]rifamycin SV]
- MIC Staph. 10B [1]: 0.001 µg/mL (≈ 0.00122 µM)
- MIC Esch. 205 (Escherichia coli 205): 8 µg/mL (≈ 9.77 µM)
- MIC Salm. 277 [2]: 32 µg/mL (≈ 39.1 µM)
- MIC Prot. 2359 (Proteus morganii 2359): 8 µg/mL (≈ 9.77 µM)
- MIC Esch. 2018 (Escherichia coli 2018): 8 µg/mL (≈ 9.77 µM)
- MIC Pseu. 799 [3]: 8 µg/mL (≈ 9.77 µM)
- MIC Prot. 1518 (Proteus morganii 1518): 2 µg/mL (≈ 2.44 µM)
- MIC Staph. 2999 [4]: 0.001 µg/mL (≈ 0.00122 µM)

SMILES: CCN1CCN(c2nc3c4c(O)c5c(O)c(C)c6c(c5c3[nH]2)C(=O)[C@@](C)(O/C=C/[C@H](OC)[C@@H](C)[C@@H](OC(C)=O)[C@H](C)[C@H](O)[C@H](C)[C@@H](O)[C@@H](C)/C=C/C=C(/C)C(=O)N4)O6)CC1 [Verbindung 31, 4-(4-Ethylpiperazinyl)-imidazolo[4,5-c]rifamycin SV]
- MIC Staph. 10B [1]: 0.002 µg/mL (≈ 0.0024 µM)
- MIC Esch. 205 (Escherichia coli 205): 8 µg/mL (≈ 9.59 µM)
- MIC Salm. 277 [2]: 32 µg/mL (≈ 38.4 µM)
- MIC Prot. 2359 (Proteus morganii 2359): 8 µg/mL (≈ 9.59 µM)
- MIC Esch. 2018 (Escherichia coli 2018): 8 µg/mL (≈ 9.59 µM)
- MIC Pseu. 799 [3]: 8 µg/mL (≈ 9.59 µM)
- MIC Prot. 1518 (Proteus morganii 1518): 8 µg/mL (≈ 9.59 µM)
- MIC Staph. 2999 [4]: 0.001 µg/mL (≈ 0.0012 µM)

SMILES: CCC(C)CN1CCN(c2nc3c([nH]2)c2c(O)c4c(O)c(C)c5c(c43)C(=O)[C@@](C)(O/C=C/[C@H](OC)[C@@H](C)[C@@H](OC(C)=O)[C@H](C)[C@H](O)[C@H](C)[C@@H](O)[C@@H](C)/C=C/C=C(/C)C(=O)N2)O5)CC1 (stereo partly shown) [Verbindung 38, 4-[4-(2-Methyl-butyl)piperazinyl]-imidazolo[4,5-c]rifamycin SV]
- MIC [1]: 0.005 µg/mL (≈ 0.00571 µM)
- MIC (Escherichia coli 205): 4 µg/mL (≈ 4.57 µM)
- MIC [2]: 16 µg/mL (≈ 18.3 µM)
- MIC (Proteus morganii 2359): 2 µg/mL (≈ 2.28 µM)
- MIC (Escherichia coli 2018): 2 µg/mL (≈ 2.28 µM)
- MIC [3]: 16 µg/mL (≈ 18.3 µM)
- MIC (Proteus morganii 1518): 4 µg/mL (≈ 4.57 µM)
- MIC [4]: 0.005 µg/mL (≈ 0.00571 µM)

SMILES: CO[C@H]1/C=C/O[C@@]2(C)Oc3c(C)c(O)c4c(O)c(c5[nH]c(N6CCN(CCC(C)C)CC6)nc5c4c3C2=O)NC(=O)/C(C)=C\C=C\[C@H](C)[C@H](O)[C@@H](C)[C@@H](O)[C@@H](C)[C@H](OC(C)=O)[C@@H]1C [Verbindung 40, 4-[4-(3-Methylbutyl)piperazinyl]-imidazolo[4,5-c]rifamycin SV]
- MIC [1]: 0.005 µg/mL (≈ 0.00571 µM)
- MIC (Escherichia coli 205): 8 µg/mL (≈ 9.13 µM)
- MIC [2]: 32 µg/mL (≈ 36.5 µM)
- MIC (Proteus morganii 2359): 8 µg/mL (≈ 9.13 µM)
- MIC (Escherichia coli 2018): 8 µg/mL (≈ 9.13 µM)
- MIC [3]: 16 µg/mL (≈ 18.3 µM)
- MIC (Proteus morganii 1518): 8 µg/mL (≈ 9.13 µM)
- MIC [4]: 0.005 µg/mL (≈ 0.00571 µM)

SMILES: C=CCCN1CCN(c2nc3c([nH]2)c2c(O)c4c(O)c(C)c5c(c43)C(=O)[C@@](C)(O/C=C/[C@H](OC)[C@@H](C)[C@@H](OC(C)=O)[C@H](C)[C@H](O)[C@H](C)[C@@H](O)[C@@H](C)/C=C/C=C(/C)C(=O)N2)O5)CC1 [Verbindung 45, 4-[4-(3-Butenyl)-piperazinyl]-imidazolo[4,5-c]rifamycin SV]
- MIC [1]: 0.01 µg/mL (≈ 0.0116 µM)
- MIC (Escherichia coli 205): 8 µg/mL (≈ 9.3 µM)
- MIC [2]: 32 µg/mL (≈ 37.2 µM)
- MIC (Proteus morganii 2359): 8 µg/mL (≈ 9.3 µM)
- MIC (Escherichia coli 2018): 1 µg/mL (≈ 1.16 µM)
- MIC [3]: 32 µg/mL (≈ 37.2 µM)
- MIC (Proteus morganii 1518): 8 µg/mL (≈ 9.3 µM)
- MIC [4]: 0.005 µg/mL (≈ 0.00581 µM)

SMILES: CC=C(CC)CN1CCN(c2nc3c([nH]2)c2c(O)c4c(O)c(C)c5c(c43)C(=O)[C@@](C)(O/C=C/[C@H](OC)[C@@H](C)[C@@H](OC(C)=O)[C@H](C)[C@H](O)[C@H](C)[C@@H](O)[C@@H](C)/C=C/C=C(/C)C(=O)N2)O5)CC1 [Verbindung 47, 4-[4-(2-Ethyl-2-butenyl)-piperazinyl]-imidazolo[4,5-c]-rifamycin SV]
- MIC [1]: 0.005 µg/mL (≈ 0.00563 µM)
- MIC (Escherichia coli 205): 8 µg/mL (≈ 9.01 µM)
- MIC [2]: 16 µg/mL (≈ 18 µM)
- MIC (Proteus morganii 2359): 4 µg/mL (≈ 4.5 µM)
- MIC (Escherichia coli 2018): 4 µg/mL (≈ 4.5 µM)
- MIC [3]: 32 µg/mL (≈ 36 µM)
- MIC (Proteus morganii 1518): 4 µg/mL (≈ 4.5 µM)
- MIC [4]: 0.005 µg/mL (≈ 0.00563 µM)

SMILES: CO[C@H]1/C=C/O[C@@]2(C)Oc3c(C)c(O)c4c(O)c(c5[nH]c(N6CCN(CC(C)=C(C)C)CC6)nc5c4c3C2=O)NC(=O)/C(C)=C\C=C\[C@H](C)[C@H](O)[C@@H](C)[C@@H](O)[C@@H](C)[C@H](OC(C)=O)[C@@H]1C [Verbindung 48]
- MIC [1]: 0.001 µg/mL (≈ 0.00113 µM)
- MIC (Escherichia coli 205): 32 µg/mL (≈ 36 µM)
- MIC [2]: 32 µg/mL (≈ 36 µM)
- MIC (Proteus morganii 2359): 8 µg/mL (≈ 9.01 µM)
- MIC (Escherichia coli 2018): 8 µg/mL (≈ 9.01 µM)
- MIC [3]: 32 µg/mL (≈ 36 µM)
- MIC (Proteus morganii 1518): 8 µg/mL (≈ 9.01 µM)
- MIC [4]: 0.001 µg/mL (≈ 0.00113 µM)
